Test results reported in patent US20220033407A1, “N-(pyridin-2-ylsulfonyl)cyclopropanecarboxamide Derivatives and their Use in the Treatment of Disease” (NOVARTIS AG, priority 2018, published 2022).

How the values were obtained:
[1] = biological target: T1, delF508-CFTR (Homo sapiens, UniProt P13569, DEL508-508); experiment: delF508-CFTR functional activity in primary human bronchial epithelial cells (HBECs), Multi-Transepithelial Clamp Circuit (MTECC-24) assay, equivalent short circuit current; format: cell-based; conditions: primary CF HBECs; for MTECC24 CFHBEC-Amax %: relative to reference combination 2 μM 3-(6-(1-(2,2-difluorobenzo[d][1,3]dioxol-5-yl)cyclopropane-1-carboxamido)-3-methylpyridin-2-yl)benzoic acid (24 h) + 0.5 μM N-(2,4-di-tert-butyl-5-hydroxyphenyl)-4-oxo-1,4-dihydroquinoline-3-carboxamide; for EC50: test compound added 24 h before assay, potentiator (S)-3-amino-6-methoxy-N-(3,3,3-trifluoro-2-hydroxy-2-methylpropyl)-5-(trifluoromethyl)picolinamide present at assay, mean of at least two replicates, read-out: MTECC24 CFHBEC-EC50
T1 construct: functional activity of the CFTR channel (Chloride ion transport) in patient derived primary human bronchial epithelial cells; host or cells: patient-derived primary human bronchial epithelial cells (HBECs), delF508-CFTR
T1 sequence (P13569 with tags, fused parts or gaps DEL508-508): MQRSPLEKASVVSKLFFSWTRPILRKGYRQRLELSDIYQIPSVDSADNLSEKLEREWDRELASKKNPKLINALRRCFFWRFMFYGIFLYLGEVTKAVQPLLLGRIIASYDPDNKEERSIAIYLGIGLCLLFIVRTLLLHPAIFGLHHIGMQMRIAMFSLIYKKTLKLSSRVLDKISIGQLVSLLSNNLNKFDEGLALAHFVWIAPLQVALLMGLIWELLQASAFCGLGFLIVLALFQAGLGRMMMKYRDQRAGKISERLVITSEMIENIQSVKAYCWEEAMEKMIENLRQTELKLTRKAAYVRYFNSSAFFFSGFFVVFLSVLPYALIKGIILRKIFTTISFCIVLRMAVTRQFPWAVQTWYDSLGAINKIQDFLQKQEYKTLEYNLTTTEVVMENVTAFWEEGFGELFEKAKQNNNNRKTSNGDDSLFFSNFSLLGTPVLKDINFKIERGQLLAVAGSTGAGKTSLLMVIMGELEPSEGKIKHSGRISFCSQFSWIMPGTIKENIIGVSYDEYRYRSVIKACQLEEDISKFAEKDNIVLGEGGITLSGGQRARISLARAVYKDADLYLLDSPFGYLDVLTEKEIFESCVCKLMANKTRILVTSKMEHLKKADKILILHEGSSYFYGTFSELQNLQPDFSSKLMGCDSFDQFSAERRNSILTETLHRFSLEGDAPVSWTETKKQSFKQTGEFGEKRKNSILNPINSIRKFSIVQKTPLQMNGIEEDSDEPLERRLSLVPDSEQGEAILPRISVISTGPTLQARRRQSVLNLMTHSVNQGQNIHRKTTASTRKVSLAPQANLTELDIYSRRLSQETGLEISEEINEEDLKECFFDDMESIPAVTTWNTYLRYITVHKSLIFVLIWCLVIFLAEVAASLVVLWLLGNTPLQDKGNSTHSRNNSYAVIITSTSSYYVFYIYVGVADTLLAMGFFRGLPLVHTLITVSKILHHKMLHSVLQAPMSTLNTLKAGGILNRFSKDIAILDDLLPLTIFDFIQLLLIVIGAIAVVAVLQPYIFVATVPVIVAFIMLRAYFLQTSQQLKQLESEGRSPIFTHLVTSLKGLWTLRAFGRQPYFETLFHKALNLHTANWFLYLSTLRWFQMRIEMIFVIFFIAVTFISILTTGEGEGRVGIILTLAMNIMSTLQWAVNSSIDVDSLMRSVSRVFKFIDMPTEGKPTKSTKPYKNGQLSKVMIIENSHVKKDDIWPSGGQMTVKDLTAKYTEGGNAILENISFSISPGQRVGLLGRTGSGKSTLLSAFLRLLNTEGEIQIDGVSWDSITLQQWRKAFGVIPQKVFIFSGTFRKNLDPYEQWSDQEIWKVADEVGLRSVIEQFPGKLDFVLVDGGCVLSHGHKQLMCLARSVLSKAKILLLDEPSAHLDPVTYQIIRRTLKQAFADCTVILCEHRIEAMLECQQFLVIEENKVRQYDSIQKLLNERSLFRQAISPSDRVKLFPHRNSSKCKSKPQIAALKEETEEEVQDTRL
Summary of the method: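 Compound acted as corrector on differentiated primary delF508-CFTR bronchial cultures, first 24 h basolaterally, then 45 min both sides before reading. Equivalent short circuit current was recorded during sequential forskolin and potentiator addition. EC50 came from 10-point, 1-in-3 dilution curves against the 0.1% DMSO baseline.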

[2] = biological target: T2, delF508-CFTR-HRP (Homo sapiens, UniProt P13569, DEL508-508); experiment: Measurement of delF508-CFTR-HRP surface expression in CFBE41o- cells (HRP luminescence); format: cell-based; conditions: for Emax: CFBE41o-, read-out: DelF508-CFTR-HRP Amax %; for EC50: mean of at least two replicates;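 for DelF508-CFTR-HRP Amax %: percent efficacy relative to a reference CFTR corrector compound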
T2 construct: expressed in transfected cells
T2 sequence (P13569 with tags, fused parts or gaps DEL508-508): as above
Summary of the method: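 EC50 derived by logistic regression of triplicate surface-HRP luminescence, plate-normalized to the lowest-concentration median. Doxycycline (500 ng/mL, 48 h) induced delF508-CFTR-HRP in CFBE41o- cells; compounds then applied 24 h at 37° C, 10 μM top, 3-fold over 10 points.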

SMILES	MTECC24 CFHBEC-Amax % [1] [%]	EC50 [1] [nM]	Emax [2] [%]	EC50 [2] [nM]
Cc1ccc(C2CCCCC2)c(OC2(C(=O)NS(=O)(=O)c3cccc(N4CC5(CCN5)C4)n3)CC2)c1 [Example 2-21, N-((6-(1,6-Diazaspiro[3.3]heptan-6-yl)pyridin-2-yl)sulfonyl)-1-(2-cyclohexyl-5-methylphenoxy)cyclopropanecarboxamide]	99	93	252	3390
Cc1ccc(C2CCCCC2)c(OC2(C(=O)NS(=O)(=O)c3cccc(N4CCC(CO)(NC(=O)OC(C)(C)C)CC4)n3)CC2)c1 [Example 2-22, Tert-butyl (1-(6-(N-(1-(2-cyclohexyl-5-methylphenoxy)cyclopropanecarbonyl)sulfamoyl)pyridin-2-yl)-4-(hydroxymethyl)piperidin-4-yl)carbamates]	90	17	674	2240
Cc1ccc(C2CCCCC2)c(OC2(C(=O)NS(=O)(=O)c3cccc(N4CCC(C)(NC(=S)NC5CC5)CC4)n3)CC2)c1 [Example 2-23, 1-(2-Cyclohexyl-5-methylphenoxy)-N-((6-(4-(3-cyclopropylthioureido)-4-methylpiperidin-1-yl)pyridin-2-yl)sulfonyl)cyclopropanecarboxamide]	66	4	330	1850
Cc1ccc(C2CCCCC2)c(OC2(C(=O)NS(=O)(=O)c3cccc(N4CCC(C)(NC(=O)OC(C)(C)C)C4)n3)CC2)c1 (centres unmarked) [Example 2-24, Tert-butyl (1-(6-(N-(1-(2-cyclohexyl-5-methylphenoxy)cyclopropanecarbonyl)sulfamoyl)pyridin-2-yl)-3-methylpyrrollidin-3-yl)carbamate]	62	5	591	1270
Cc1ccc(C2CCCCC2)c(OC2(C(=O)NS(=O)(=O)c3cccc(N(C)C)n3)CC2)c1 [Example 2-25, 1-(2-Cyclohexyl-5-methylphenoxy)-N-((6-(dimethylamino)pyridin-2-yl)sulfonyl)cyclopropanecarboxamide]	89	1	661	1440
Cc1ccc(C2CCCCC2)c(OC2(C(=O)NS(=O)(=O)c3cccc(N4CCOC[C@H]4C)n3)CC2)c1 [Example 2-26, (R)-1-(2-Cyclohexyl-5-methylphenoxy)-N-((6-(3-methylmorpholino)pyridin-2-yl)sulfonyl)cyclopropanecarboxamide]	89	6	500	1410
Cc1ccc(C2CCCCC2)c(OC2(C(=O)NS(=O)(=O)c3cccc(N4CCC(C)(N)C4)n3)CC2)c1 (centres unmarked) [Example 2-27, N-((6-(3-Amino-3-methylpyrrolidin-1-yl)pyridin-2-yl)sulfonyl)-1-(2-cyclohexyl-5-methylphenoxy)cyclopropanecarboxamide]	104	70	181	2580
Cc1ccc(C2CCCCC2)c(OC2(C(=O)NS(=O)(=O)c3cccc(N4CCC5(CC4)CC(=O)c4cc(F)ccc4O5)n3)CC2)c1 [Example 2-28, 1-(2-Cyclohexyl-5-methylphenoxy)-N-((6-(6-fluoro-4-oxospiro[chroman-2,4′-piperidin]-1′-yl)pyridin-2-yl)sulfonyl)cyclopropanecarboxamide]	83	49	429	530
Cc1ccc(C2CCCCC2)c(OC2(C(=O)NS(=O)(=O)c3cccc(N4CC5(CN(C(=O)OC(C)(C)C)C5)C4)n3)CC2)c1 [Example 2-29, Tert-butyl 6-(6-(N-(1-(2-cyclohexyl-5-methylphenoxy)cyclopropanecarbonyl)sulfamoyl)pyridin-2-yl)-2,6-diazaspiro[3.3]heptane-2-carboxylate]	76	63	626	870
Cc1ccc(C2CCCCC2)c(OC2(C(=O)NS(=O)(=O)c3cccc(N4CC5(CCN5C(=O)OC(C)(C)C)C4)n3)CC2)c1 [Example 2-30, Tert-butyl 6-(6-(N-(1-(2-cyclohexyl-5-methylphenoxy)cyclopropanecarbonyl)sulfamoyl)pyridin-2-yl)-1,6-diazaspiro[3.3]heptane-1-carboxylate]	69	23	243	1790
Cc1ccc(C2CCCCC2)c(OC2(C(=O)NS(=O)(=O)c3cccc(N4CCNCC4)n3)CC2)c1 [Example 2-31, 1-(2-Cyclohexyl-5-methylphenoxy)-N-((6-(piperazin-1-yl)pyridin-2-yl)sulfonyl)cyclopropanecarboxamide]	89	421	96	3250
Cc1ccc(C2CCCCC2)c(OC2(C(=O)NS(=O)(=O)c3cccc(N4CCNC(=O)C4)n3)CC2)c1 [Example 2-33, 1-(2-Cyclohexyl-5-methylphenoxy)-N-((6-(3-oxopiperazin-1-yl)pyridin-2-yl)sulfonyl)cyclopropanecarboxamide]	46	66	114	3960
Cc1ccc(C2CCCCC2)c(OC2(C(=O)NS(=O)(=O)c3cccc(N4CCN(C(=O)OC(C)(C)C)CC4)n3)CC2)c1 [Example 2-34, Tert-butyl 4-(6-(N-(1-(2-cyclohexyl-5-methylphenoxy)cyclopropanecarbonyl)sulfamoyl)pyridin-2-yl)piperazine-1-carboxylate]	57	15	366	1100
Cc1ccc(C2CCCCC2)c(OC2(C(=O)NS(=O)(=O)c3cccc(N[C@H]4C[C@H](O)C4)n3)CC2)c1 [Example 2-35, 1-(2-Cyclohexyl-5-methylphenoxy)-N-((6-((trans-3-hydroxycyclobutyl)amino)pyridin-2-yl)sulfonyl)cyclopropane-1-carboxamide]	76	108	235	2420
Cc1ccc(C2CCCCC2)c(OC2(C(=O)NS(=O)(=O)c3cccc(N[C@H]4C[C@@H](O)C4)n3)CC2)c1 [Example 2-36, 1-(2-Cyclohexyl-5-methylphenoxy)-N-((6-((cis-3-hydroxycyclobutyl)amino)pyridin-2-yl)sulfonyl)cyclopropane-1-carboxamide]	152	44	432	2090
Cc1ccc(C2CCCCC2)c(OC2(C(=O)NS(=O)(=O)c3cccc(N4CCNC(C(F)(F)F)C4)n3)CC2)c1 (centres unmarked) [Example 2-37, 1-(2-Cyclohexyl-5-methylphenoxy)-N-((6-(3-(trifluoromethyl)piperazin-1-yl)pyridin-2-yl)sulfonyl)cyclopropanecarboxamide]	103	3	306	1350
[2H]C1([2H])OC([2H])([2H])C([2H])([2H])N(c2cccc(S(=O)(=O)NC(=O)C3(Oc4cc(C)ccc4C4CCCCC4)CC3)n2)C1([2H])[2H] [Example 2-39, 1-(2-Cyclohexyl-5-methylphenoxy)-N-((6-(morpholino-d8)pyridin-2-yl)sulfonyl)cyclopropane-1-carboxamide]	67	2	383	1800
